{
  "source": "patent US8673851B2",
  "about": "“Synapse-specific proteins in glomeruli” (priority 2005, dated 2014)",
  "molecules": {"B1": {"name": "BDNF: Brain Derived Neurotrophic Factor (Sigma) (protein, UniProt P23560 19-247, looked up)", "Neurotrophic factor BDNF …": "APMKEANIRGQGGLAYPGVRTHGTLESVNGPKAGSRGLTSLADTFEHVIEELLDEDQKVRPNEENNKDADLYTSRVMLSSQVPLEPPLLFLLEEYKNYLDAANMSMRVRRHSDPARRGELSVCDSISEWVTAADKKTAVDMSGGTVTVLEKVPVSKGQLKQYFYETKCNPMGYTKEGCRGIDKRHWNSQCRTTQSYVRALTMDSKKRIGWRFIRIDTSCVCTLTIKRGR"}},
  "key": {"primary mouse podocytes": {"system": "primary mouse podocytes", "test": "Phalloidin staining of the actin cytoskeleton", "format": "cell-based", "conditions": "24 h, 50 mM norketamine hydrochloride", "description": "A Phalloidin staining of primary mouse podocytes after 24 h medium incubation. The actin cytoskeleton is intact. Rhodamine-phalloidin, 100×)\nB Phalloidin staining of primary mouse podocytes after 24 h 50 mM norketamine hydrochloride incubation. […] (Rhodamine-phalloidin, 100×)\nBy immunohistochemistry, we have observed a variation of positivity, either increased or decreased, for other synaptic proteins, such as synapsin 1 (antibody from Abeam), and the ionotropic glutamate receptor NMDA-1 in a variety of human glomerulonephritis (FIG. 12)."}, "cultured mouse podocytes": {"system": "cultured mouse podocytes", "test": "α-latrotoxin-stimulated glutamate release (enzymatic GDH/NADH assay)", "format": "cell-based", "description": "α-Latrotoxin stimulated glutamate release was detected by an enzymatic assay based on the following reaction that occurs in presence of glutamate dehydrogenase (GDH): Glutamate−+NAD++H20 ketoglutarate2−+NADH+[…]H+.\nBriefly, to this purpose, the same numbers of podocytes obtained from normal mouse glomeruli were plated and grown to semiconfluence. Before measurements, cells were washed and re-suspended for 1 hour at 37° C. in DME incubation buffer (NaCl 109.5 mM, KCl 5.3 mM, glucose 5.5 mM with MgCl2 1 mM, Hepes 20 mM). The medium was further supplemented with GDH (Sigma 60 U/ml) and NAD+ (Sigma 1 mM), and incubated for 5 min. Then, α-latrotoxin was added at subnanomolar (0.5 nM) or nanomolar (2.5 nM) concentration and spectrophotometric increase of optical density (O.D.) due to increase of NADH was monitored at 340 nm. 200 nM Bafilomycin A1 (Sigma), a V-ATPase inhibitor that dissipates the electrochemical proton gradient necessary for glutamate uptake and storage into vescicles43, was added for 30 min at 37° C. to control cell plates before α-latrotoxin stimulation."}, "cultured podocytes": {"system": "cultured podocytes", "test": "Rab3A and glutamate staining of cultured podocytes before and after α-latrotoxin stimulus", "format": "cell-based, mouse", "conditions": "after nanomolar α-latrotoxin treatment", "from_the_text": "Panel b)-e): Rab3A (b, d) and glutamate (c, e) staining of cultured podocytes before (b, c) and after (d, e) nanomolar α-latrotoxin stimulus. Disappearance of most labeling from the processes of podocytes is evident after stimulation (indirect immunofluorescence, 450×)."}, "podocytes [1]": {"system": "podocytes", "format": "cell-based", "conditions": "for Calcium content (Fluo4) / Intra-vesicle pH (Lysosensor green) / Membrane potential (RH-414 accumulation and discharge): during stimulated exocytosis"}, "primary podocytes": {"system": "primary podocytes", "test": "Synaptic vesicle recycling with styryl dye FM1-43", "format": "cell-based", "from_the_text": "The recycling of synaptic vesicles in nerve terminals is a complex multistep process, whose investigation has been made feasible by the use of styryl dyes. These molecules, that reversibly insert into the surface of lipid membranes, have no fluorescent properties in aqueous solution, but become intensely fluorescent upon membrane binding, allowing a labelling of recycling synaptic vesicles that is easily detectable by fluorescence microscopy."}, "cell membranes": {"system": "cell membranes", "conditions": "higher concentrations (>10 nM); cited from earlier work"}, "podocytes [2]": {"system": "podocytes", "test": "[3H]-L-glutamate uptake", "format": "cell-based, mouse", "description": "Podocytes were seeded at a density of 15,000 cells/well in 48-well plates, Two days later the culture medium was removed, the adherent washed two times with 0.5 mL/well of assay buffer (10 mM Tris-acetate, 128 mM NaCl, 10 mM D-glucose, 5 mM KCl, 1.5 mM NaH2PO4, 1 mM MgSO4, 1 mM CaCl2, pH 7.4) and then incubated for 15 min at 35° C. in assay buffer (0.3 mL/well) containing 100 nM [3H]-L-glutamate (Amersham, specific activity 47.0 Ci/mmol) with or without different concentrations of cold L-glutamate (from 1 to 1000 μM). Non-specific uptake was determined in parallel samples incubated in a Na+-free buffer (NaCl replaced by cholineCl). […]\nIn preliminary experiments it was established that the uptake of [3H]-Lglutamate was linear at least up to 15 min (not shown). Cells were then added with 0.3 mL/well of SDS and, after 2 hours on shaking plate, the well content was counted in 4 mL of Ultima Gold MV (Packard Bioscience, Groningen, the Netherlands) in an LKB 1214 Rackbeta liquid scintillation counter with a counting efficiency of about 60%.\nKm and Vmax of L-glutamate uptake were determined by fitting the inhibition curve using the “homologous competitive binding curve” equation built into GrapPad Prism version 4.00 for Windows (GraphPad Software, San Diego Calif. USA). […]"}, "primary podocyte": {"system": "primary podocyte", "test": "BDNF incubation, process formation (bright-field)", "format": "cell-based", "conditions": "250 ng/ml, 20 hour incubation", "description": "FIG. 18 • A) Bright-field image (200×) showing the in vivo appearance of a primary podocyte before BDNF treatment. • B) The same field is taken after 20 h of BDNF incubation. The cell has produced a number of processes starting from its body.\nWe have also observed that podocytes are sensitive to 250 ng/ml BDNF (Brain Derived Neurotrophic Factor) (Sigma): after 20 hour incubation with BDNF, in fact, the number of processes extending from the podocyte cell body are increased (FIG. 18)."}},
  "note": "Where a name gives a salt, the structure may show the parent alone.",
  "data": [
    {"molecule": "NC1(c2ccccc2Cl)CCCCC1=O", "note": "(centres unmarked) [norketamine hydrochloride]", "values": [
      {"measurement": "Actin cytoskeleton (rhodamine-phalloidin)", "setting": "primary mouse podocytes", "value": "profound alteration of the actin cytoskeleton"}
    ]},
    {"molecule": "α-latrotoxin", "values": [
      {"measurement": "Glutamate secretion (generation of NADH, optical density at 340 nm)", "setting": "cultured mouse podocytes; 0.5 nM α-latrotoxin", "value": "continuous exocytosis"},
      {"measurement": "Glutamate secretion (generation of NADH, optical density at 340 nm)", "setting": "cultured mouse podocytes; 2.5 nM α-latrotoxin", "value": "burst of neurotransmitter release, followed by steady state"},
      {"measurement": "Glutamate labeling of cell processes by immunohistochemistry", "setting": "cultured podocytes", "value": "disappearance of most glutamate from cell processes"},
      {"measurement": "Rab3A distribution by immunohistochemistry", "setting": "cultured podocytes", "value": "redistribution of Rab3A"},
      {"measurement": "Calcium content (Fluo4)", "setting": "podocytes [1]", "value": "rapid variation in calcium content"},
      {"measurement": "Intra-vesicle pH (Lysosensor green)", "setting": "podocytes [1]", "value": "variation of intra-vesicle pH"},
      {"measurement": "Membrane potential (RH-414 accumulation and discharge)", "setting": "podocytes [1]", "value": "rapid variation of the membrane potential"},
      {"measurement": "FM1-43 dye uptake", "setting": "primary podocytes; a few seconds after a first α-latrotoxin stimulus", "value": "accumulate the styryl dye FM1-43"},
      {"measurement": "FM1-43 dye release", "setting": "primary podocytes; after a second α-latrotoxin stimulation", "value": "almost completely discharge the dye"},
      {"measurement": "Damage to cell membranes", "setting": "cell membranes", "value": "highly damaging for cell membranes"}
    ]},
    {"molecule": "N[C@@H](CCC(=O)O)C(=O)O", "note": "[L-glutamate]", "values": [
      {"measurement": "Km", "setting": "podocytes [2]; Na+-dependent uptake, 100 nM [3H]-L-glutamate, 15 min at 35° C.", "value": 83, "unit": "µM"},
      {"measurement": "Vmax of L-glutamate uptake", "setting": "podocytes [2]; estimated, 15,000 cells/well seeded", "value": "about 2 pmol/min/well"}
    ]},
    {"molecule": "[Cl-].[K+]", "note": "[KCl]", "values": [
      {"measurement": "Induction of stimulated exocytosis", "setting": "podocytes [1]; 60 mM", "value": "can be induced"},
      {"measurement": "Calcium content (Fluo4)", "setting": "podocytes [1]", "value": "rapid variation in calcium content"},
      {"measurement": "Intra-vesicle pH (Lysosensor green)", "setting": "podocytes [1]", "value": "variation of intra-vesicle pH"},
      {"measurement": "Membrane potential (RH-414 accumulation and discharge)", "setting": "podocytes [1]", "value": "rapid variation of the membrane potential"}
    ]},
    {"molecule": "tetanus toxin", "values": [
      {"measurement": "Block of exocytotic events", "setting": "podocytes [1]", "value": "can be blocked"}
    ]},
    {"molecule": "CO/C1=C\\C(C)=C\\[C@@H](C)[C@@H](O)[C@@H](C)C/C(C)=C/C=C/[C@H](OC)[C@@H]([C@@H](C)[C@@H](O)[C@H](C)[C@@]2(O)C[C@@H](O)[C@H](C)[C@@H](C(C)C)O2)OC1=O", "note": "[bafilomycin, Bafilomycin A1]", "values": [
      {"measurement": "Glutamate release after α-latrotoxin", "setting": "cultured mouse podocytes; bafilomycin added 30 min before latrotoxin (0.5 nM or 2.5 nM α-latrotoxin), 200 nM Bafilomycin A1", "value": "Absence of glutamate release"}
    ]},
    {"molecule": "B1", "values": [
      {"measurement": "Number of processes extending from the podocyte cell body", "setting": "primary podocyte", "value": "increased"}
    ]}
  ]
}
